{
  "source": "patent US20210186972A1",
  "about": "“FORMULATIONS AND METHODS FOR THE PREVENTION AND TREATMENT OF TUMOR METASTASIS AND TUMORIGENESIS” (THE UNITED STATES OF AMERICA, AS REPRESENTED BY THE …, priority 2018, published 2021)",
  "key": {"PC3M-GFP-PTB cells": {"test_system": "PC3M-GFP-PTB cells", "assay": "PNC prevalence / PNC disassembly in PC3M-GFP-PTB cells", "format": "cell-based, human", "from_the_text": "FIG. 1 is a graph showing the concentration-response curve against PNC prevalence in PC3M (a metastatic prostate cancer cell line)-GFP (green fluorescent protein)-PTB (polypyrimidine tract-binding protein) cells (squares, PC3M, has a PNC prevalence of 75-85% in the absence of treatment) and cytotoxicity as measured by cellular ATP (CELLTITER GLO™) (circles). Representative PTB-GFP images for cells at the indicated concentrations (arrowheads indicate PNCs) (scale bar=5 μm) are shown in the three panels above the graph. The relative signal (%) is along the y-axis and Metarrestin [log M] is along the x-axis.\nA metastatic prostate cancer cell line, PC3M, was developed in order to screen small molecules that effectively disassemble PNCs (see Pettaway, et al., “Selection of highly metastatic variants of different human prostatic carcinomas using orthotopic implantation in nude mice,” Clin. Cancer Res., (2): 1627-36 (1996), incorporated herein in its entirety). PC3M has a […] stably express GFP-PTB (polypyrimidine track binding protein) (FIG. 1, top panels), an essential component of PNCs (see Huang, et al., “The perinucleolar compartment and transcription,” Journal of Cell Biology, (143): 35-47 (1998), incorporated herein in its entirety). Compounds able to reduce PNC prevalence by 50% were filtered in secondary assays to eliminate those that induced apoptosis, DNA damage, generic cytotoxicity, or cell-cycle blockage (see Norton, et al., “Automated high-content screening for compounds that disassemble the perinucleolar compartment,” J Biomol Screen, (14): 1045-53 (2009) and Frankowski, et al., “Discovery and Development of Small Molecules That Reduce PNC Prevalence, in Probe Reports from the NIH Molecular Libraries Program, Bethesda (Md.).(2010), incorporated herein in their entirety). The remaining hits were evaluated for invasion inhibition through MATRIGEL gelatinous protein mixture and anchorage-independent growth inhibition using soft agar assays."}, "human cancer cell lines": {"test_system": "human cancer cell lines", "assay": "PNC prevalence in a range of cancer cell lines", "format": "cell-based", "settings": "1 μM, 24 hours, different human cancer cell lines", "description": "FIG. 2 is a bar graph showing that 1 μM metarrestin was effective at reducing PNCs in a range of cancer cell lines (p<0.05 for PNC reduction in all cell lines; the list of cells is in Table 1 below, see also Example 2 below). The DMSO control is shown in light grey bars and metarrestin in dark grey bars. PNC prevalence (%) is on the y-axis and the cell line names are along the x-axis.\nIn summary, several cell types (see list below in Table 1) were treated with 1 μM (IC100 for PC3M cells) of metarrestin for 24 hours. Specifically, PC-3M cells were maintained in RPMI 1640 medium. Other cell lines including HeLa, Panel, PACADD159, PACADD183, PA-TU-8988T, KP-3, PK-8, NOR-P1, L3.6sl, Colo357, Suit-2, HP AC were maintained in DMEM with 10% FBS (GEMINI™ Bio Products) and 100 units/mL of penicillin and streptomycin. Cells were generally plated approximately 24 h before treatment with metarrestin for 5 h or 24 h at 1 μM."}, "[1]": {"test_system": "RPA194 and UBF occupancy on rDNA", "assay": "Quantitative ChIP on rDNA", "format": "cell-based", "settings": "HeLa cells", "description": "ChIP-qPCR: 2-5×10^7 cells were used for each ChIP assay according to previously described protocols. Briefly, HeLa cells with or without metarrestin treatment were crosslinked with 1% formaldehyde for 10 min at room temperature with rotation, and then crosslinking was quenched by the addition of glycine. Fixed chromatin was sonicated by Covaris and used for immunoprecipitation with the indicated antibody. Isolated DNA was analyzed by qPCR using SYBR green on CFX Connect Real-Time PCR Detection System (BioRad). The comparative cycle threshold method was applied to evaluate occupancy from replicate PCR reactions relative to the level of input. […]\nPsoralen crosslinks active accessible DNA under UV light without displacing nucleosomes or transcription factors, or changing chromatin states. […] To examine the interactions between Pol I transcription factors and rDNA, quantitative ChIP experiments were carried out using primer sets across promoter and coding regions of rDNA (FIG. 29-30E)."}},
  "note": "Where two headings read alike, the source gives them in different places.",
  "data": [
    {"smiles": "N=c1c2c(-c3ccccc3)c(-c3ccccc3)n(Cc3ccccc3)c2ncn1[C@H]1CC[C@H](O)CC1", "note": "[metarrestin]", "values": [
      {"measurement": "PNC disassembly and nucleolar distortion", "setting": "PC3M-GFP-PTB cells; 1 μM", "value": "~100", "unit": "%"},
      {"measurement": "IC90", "setting": "PC3M-GFP-PTB cells; Homo sapiens, FIG. 1", "value": 750, "unit": "nM"},
      {"measurement": "IC50", "setting": "PC3M-GFP-PTB cells; Homo sapiens, P3CM cells, read-out: PNC disassembling IC50", "value": 390, "unit": "nM"},
      {"measurement": "IC50", "setting": "PC3M-GFP-PTB cells; Homo sapiens, PC3M-GFP-PTB cells, read-out: IC50 for disruption of PNCs", "value": 390, "unit": "nM"},
      {"measurement": "IC100", "setting": "PC3M-GFP-PTB cells; PC3M cells, 24 hours", "value": 1, "unit": "µM"},
      {"measurement": "PNC prevalence", "setting": "human cancer cell lines", "value": "reduced PNC prevalence"},
      {"measurement": "UBF binding to rDNA", "setting": "[1]", "value": "without significant impact on UBF binding"},
      {"measurement": "RPA194 occupancy on rDNA promoter and coding regions", "setting": "[1]; p<0.01", "value": "significantly reduced RPA194 occupancy"}
    ]}
  ]
}
